Results from patent publication US8461186B2, “Use of N-piperidine derivatives for the treatment of neurodegenerative pathologies” (Medestea Research & Production S.p.A., priority 2004, dated 2013).
Where two headings read alike, the source gives them in different places.

What was measured:
[1] = system: rats receiving Paraquat into Substantia Nigra; type: in vivo, rat
Source text: The Paraquat/rat/PS experimental model was therefore selected as the most indicative for checking the efficacy of chemical compounds according to the present invention; of these, two anti-oxidants designated MP1002 and MP1001 were used in the tests:
Male Sprague Dawley rats (210-220 g weight) were kept on a standard laboratory diet supplemented with “Nossan Pellets” (both the animals and the pellets are available from Nossan Company, Milan, Italy) and were housed for three weeks (relative humidity 50%±10%, temperature 22° C.±1 and in a light/darkness cycle of 12 hours/12 hours, with first light at 7.30 a.m.) prior to the tests; food and water were available ad libitum.
Prior to treatment, the rats were anaesthetized by intraperitoneal injection of 380 mg/kg weight of chloral hydrate; a stainless steel guide cannula (size 25) was implanted unilaterally in the Substantia Nigra with stereotaxic guiding and was secured to the cranium with dental acrylic material.
The animals (20 per test group) were allowed a recovery period of seven days prior to treatment; during this period no change in motor activity or posture was observed. Microinfusions were performed by means of a 10 μl Hamilton syringe connected to an injection cannula by means of a Teflon tube. The compounds or the vehicle (0.8% NaCl) were injected at a total volume of 1 μl/minute.
Microinfusion of 50 μg of Paraquat into the Substantia Nigra (n=20 rats) led to an increase in motor activity with the animals performing jumps and moving in circles in a contralateral direction relative to the injection position, about 24 minutes later; all of the animals were dead 24±2.5 hours after infusion. A further twenty animals were infused with Paraquat and twenty with Paraquat plus vehicle; about ten of the animals for each group survived 20 hours after treatment and were used to determine the development of lipid peroxidation in the Substantia Nigra.

[2] = system: lipid peroxidation in the Substantia Nigra; type: in vivo; conditions: for Lipid Peroxidation: Substantia Nigra, 24 hours
Experimental: Microinfusion of 50 μg of Paraquat into the Substantia Nigra (n=20 rats) led to an increase in motor activity with the animals performing jumps and moving in circles in a contralateral direction relative to the injection position, about 24 minutes later; all of the animals were dead 24±2.5 hours after infusion. […]
[…]. Enzymol. 52, 302-310, 1978.

[3] = system: myocardial ischaemia and reperfusion (I/R) in the rat; assay: Myocardial lesion due to ischaemia and reperfusion (LAD occlusion): size of the infarct; type: in vivo; conditions: 10 mg/kg bolus 5 minutes prior to reperfusion, then 2 mg/kg/h; LAD occlusion 25 minutes, reperfusion 2 hours; p<0.01 (FIG. 1)
Experimental: The in vivo model of myocardial lesion due to ischaemia and reperfusion was selected as the most suitable for checking the efficacy of the compounds MP1002 and MP1001 according to the invention.
Male Sprague Dawley rats (220-230 g) were kept on a standard laboratory diet supplemented with “Nossan Pellets” (Nossan Company, Milan, Italy) and were housed for three weeks prior to the tests (relative humidity 50%±10, temperature 22° C.±1 and light/darkness cycle of 12/12 hours with first light at 7.30 a.m.); food and water were available ad libitum.
The rats (twenty per group) were anaesthetized by intraperitoneal injection of chloral hydrate (380 mg/kg) and were then tracheotomized, intubated and ventilated with ambient air by a suitable ventilator; body temperature was kept at 38° C.±1 and the right carotid artery was cannulated and connected to a pressure transducer to monitor the mean arterial blood pressure (MAP). […]
The coronary artery was occluded by tightening the occluder, a procedure which is correlated with the electrocardiographic and haemodynamic changes (drop in MAP) which are typical of myocardial ischaemia. […] The heart rate (HR) and MAP were monitored continuously. […]

[4] = system: mean arterial blood pressure (MAP) and heart rate (HR) in the rat; assay: Mean arterial blood pressure (MAP) and heart rate (HR) in myocardial ischaemia and reperfusion; type: in vivo; conditions: for HR: in beats/min (unit assumed); for MAP: in mmHg (unit assumed)
Experimental: The rats (twenty per group) were anaesthetized by intraperitoneal injection of chloral hydrate (380 mg/kg) and were then tracheotomized, intubated and ventilated with ambient air by a suitable ventilator; body temperature was kept at 38° C.±1 and the right carotid artery was cannulated and connected to a pressure transducer to monitor the mean arterial blood pressure (MAP).
The coronary artery was occluded by tightening the occluder, a procedure which is correlated with the electrocardiographic and haemodynamic changes (drop in MAP) which are typical of myocardial ischaemia. After 25 minutes of myocardial ischaemia, the occluder was reopened, permitting reperfusion for 2 hours. The heart rate (HR) and MAP were monitored continuously.
The following test groups were considered: a) LAD occlusion (25 minutes) and reperfusion (2 hours) plus administration of the vehicle (saline solution, 3 ml/kg-v-bolus plus 1.8 ml/kg/h) starting 5 minutes after reperfusion and maintained during the reperfusion period; b) LAD occlusion and reperfusion plus administration of MP1002 or MP1001 (10 mg/kg injection in bolus) 5 minutes prior to reperfusion, followed by infusion of 2 mg/kg/h during the reperfusion period; c) sham operation (no LAD occlusion) and infusion of the vehicle; d) sham operation and infusion of MP1002 or MP1001 as described above.
The base haemodynamic results were similar in the various groups considered.

[5] = 50 μg paraquat by microinfusion, 5 minutes later 100 mg/kg b.w. intraperitoneal
[6] = Paraquat (50 μg) microinfused simultaneously with 1 μg compound
[7] = pretreated intraperitoneally 120 mg/kg b.w., after 5 minutes paraquat (50 μg) by microinfusion
[8] = simultaneous microinfusion into Substantia Nigra of paraquat (50 μg) with 1 μg compound
[9] = simultaneously 50 μg paraquat by microinfusion and 120 mg/kg b.w. intraperitoneal
[10] = Sham operation, Occlusion 15 min
[11] = Sham operation, Occlusion 25 min
[12] = Sham operation, Reperfusion 15 min
[13] = Sham operation, Reperfusion 25 min

With CC1(C)CC(OC(=O)CCCCCCCCC(=O)OC2CC(C)(C)N(O)C(C)(C)C2)CC(C)(C)N1O [MP1001, BIS(1-HYDROXYL-2,2,6,6-TETRAMETHYL-4-PIPERIDINYL)DECANDIOATE] the “Duration (seizures)” value [1, 5] was “No seizures and epileptic discharges”, the “Latency (seizures)” value [1, 5] was “No seizures and epileptic discharges” and the Mortality [1, 5] was 0%. The deaths of rats ([1]; 120 mg/kg intraperitoneally 5 minutes prior to, simultaneously with, or 5 minutes after 50 μg Paraquat) was “none of the rats died”, the “signs of alterations during continuous monitoring” value [1, 6] was “no signs of alterations were observed” and the “survival for a further 24 hours” value [1, 6] was “all of the animals survived”. For the same molecule, the “capacity to cross the blood-brain barrier (BBB)” value ([1]; concluded from protection after intraperitoneal administration) was “cross the blood-brain barrier”, the “protection against the behavioural and neuropathological effects induced by Paraquat” value ([1]; intracerebral and peripheral administration) was “protected completely” and the “Duration (seizures)” value [1, 7] was “No seizures and epileptic discharges”. For the same molecule, the “Latency (seizures)” value [1, 7] was “No seizures and epileptic discharges”, the Mortality [1, 7] was 0% and the “Duration (seizures)” value [1, 8] was “No seizures and epileptic discharges”. The “Latency (seizures)” value [1, 8] was “No seizures and epileptic discharges”, the Mortality [1, 8] was 0% and the “Duration (seizures)” value [1, 9] was “No seizures and epileptic discharges”. For the same molecule, the “Latency (seizures)” value [1, 9] was “No seizures and epileptic discharges”, the Mortality [1, 9] was 0% and the “Lipid Peroxidation” value [2, 5] was 4.8 ± 0.57 nmol MDA × h^−1 × mg prot^−1. For the same molecule, the “Lipid Peroxidation” value ([2]; pretreated intraperitoneally 120 mg/kg b.w., after 5 minutes paraquat (50 μg)) was 4.7 ± 0.49 nmol MDA × h^−1 × mg prot^−1, the “Lipid Peroxidation” value ([2]; simultaneous microinfusion of paraquat (50 μg) with 1 μg compound) was 5.4 ± 0.84 nmol MDA × h^−1 × mg prot^−1 and the “Lipid Peroxidation” value [2, 9] was 5.1 ± 0.94 nmol MDA × h^−1 × mg prot^−1. The “lipid peroxidation in the Substantia Nigra” value ([2]; treatment before, with, or after infusion with Paraquat, p<0.01) was “markedly and significantly (p<0.01) reduced lipid peroxidation”, the “reduction in the size of the infarct compared with the control” value [3] was 78% and the HR ([4]; I/R, Baseline) was 435 ± 25. For the same molecule, the MAP ([4]; I/R, Baseline) was 125 ± 9, the HR ([4]; I/R, Occlusion 15 min) was 438 ± 31 and the MAP ([4]; I/R, Occlusion 15 min) was 118 ± 12. The HR ([4]; I/R, Occlusion 25 min) was 430 ± 28, the MAP ([4]; I/R, Occlusion 25 min) was 111 ± 13 and the HR ([4]; I/R, Reperfusion 15 min) was 425 ± 28. For the same molecule, the MAP ([4]; I/R, Reperfusion 15 min) was 100 ± 10, the HR ([4]; I/R, Reperfusion 25 min) was 427 ± 26 and the MAP ([4]; I/R, Reperfusion 25 min) was 95 ± 8. It also gave an HR ([4]; Sham operation, Baseline) of 422 ± 33, an MAP ([4]; Sham operation, Baseline) of 127 ± 16 and an HR [4, 10] of 422 ± 26. The MAP [4, 10] was 125 ± 13, the HR [4, 11] was 424 ± 48 and the MAP [4, 11] was 121 ± 11. For the same molecule, the HR [4, 12] was 427 ± 27, the MAP [4, 12] was 112 ± 8 and the HR [4, 13] was 427 ± 23. The MAP [4, 13] was 107 ± 16, the “mean MAP and HR values versus the I/R group treated with the vehicle alone” value ([4]; rats subjected to I/R) was “not significantly different” and the “haemodynamic effects of infusion” value ([4]; sham operations (no LAD occlusion)) was “no substantial haemodynamic effects”.
